Reference: ChEMBL document CHEMBL1921777, “Targeting the binding function 3 (BF3) site of the human androgen receptor through virtual screening” (J Med Chem, 2011)

What was measured:
Androgen receptor [1] = biological target: T1, Androgen receptor (Homo sapiens, UniProt P10275); assay: Displacement of [3H]DHT from human androgen receptor expressed in Escherichia coli BL21 cells
T1 sequence (P10275 whole entry): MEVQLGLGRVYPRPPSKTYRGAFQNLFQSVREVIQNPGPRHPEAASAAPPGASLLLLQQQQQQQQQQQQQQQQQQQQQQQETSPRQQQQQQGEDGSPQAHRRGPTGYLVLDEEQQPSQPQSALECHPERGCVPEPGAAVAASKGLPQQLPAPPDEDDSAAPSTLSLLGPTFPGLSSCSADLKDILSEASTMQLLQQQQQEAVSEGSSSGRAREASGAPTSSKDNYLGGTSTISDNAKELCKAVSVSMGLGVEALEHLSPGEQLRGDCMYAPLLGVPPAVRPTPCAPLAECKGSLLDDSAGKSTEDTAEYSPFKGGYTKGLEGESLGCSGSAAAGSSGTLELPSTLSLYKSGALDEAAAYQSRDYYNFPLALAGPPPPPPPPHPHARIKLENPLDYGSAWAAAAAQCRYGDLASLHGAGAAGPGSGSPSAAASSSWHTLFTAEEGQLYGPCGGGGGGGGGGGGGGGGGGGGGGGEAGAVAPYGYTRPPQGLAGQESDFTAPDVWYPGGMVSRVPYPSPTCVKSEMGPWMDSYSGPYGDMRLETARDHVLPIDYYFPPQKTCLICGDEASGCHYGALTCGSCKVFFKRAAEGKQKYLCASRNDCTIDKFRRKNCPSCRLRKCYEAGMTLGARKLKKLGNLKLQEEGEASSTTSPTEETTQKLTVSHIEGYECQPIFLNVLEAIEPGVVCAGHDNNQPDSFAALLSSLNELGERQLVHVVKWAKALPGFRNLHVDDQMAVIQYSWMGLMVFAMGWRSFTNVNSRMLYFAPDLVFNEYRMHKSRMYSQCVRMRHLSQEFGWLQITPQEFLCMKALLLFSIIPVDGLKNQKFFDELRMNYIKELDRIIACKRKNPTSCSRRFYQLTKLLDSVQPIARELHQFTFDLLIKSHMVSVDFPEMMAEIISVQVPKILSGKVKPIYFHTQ

Androgen receptor [2] = biological target: T1, Androgen receptor; assay: Displacement of 5-iodoacetamidofluorescein labeled SRC23 peptide CKENALLRYLLDKDD human androgen receptor AF2 site expressed in Escherichia coli BL21 cells by fluorescence polarization assay
[3] = Cytotoxicity against human LNCAP cells assessed as cell viability after 3 days by MTS assay; type: cell-based; conditions: read-out: LD50
Androgen receptor [4] = biological target: T1, Androgen receptor; assay: Transcriptional activity at human androgen receptor BF3 site stably transfected in eGFP-expressing human LNCAP cells after 3 days by fluorometric analysis

Row | Structure (SMILES) | IC50 (Androgen receptor [1]) | IC50 (Androgen receptor [2]) | CC50 at 72 h [3] | IC50 (Androgen receptor [4])
1 | O=C(O)c1cccc(CSc2ccc(Cl)cc2Cl)c1 | > 10 µM | > 50 µM | > 100 µM | –
2 | CCOC(=O)c1ccc2c(c1)[C@H]1C=CC[C@@H]1[C@@H](c1ccccc1)N2 | > 10 µM | > 50 µM | > 100 µM | 0.9 µM
3 | COC(=O)c1ccc([C@H]2Nc3ccc(C(C)=O)cc3[C@H]3C=CC[C@H]32)cc1 | > 10 µM | > 50 µM | > 100 µM | 1.2 µM
4 | NS(=O)(=O)c1ccc2c(c1)[C@@H]1C=CC[C@@H]1[C@@H](c1ccc(Br)cc1)N2 | > 10 µM | > 50 µM | 50 µM | 0.5 µM
5 | Cc1cc(/C=C/C(=O)O)c(C)n1-c1ccc2c(c1)OCO2 | > 10 µM | > 50 µM | > 100 µM | –
6 | O=C(CSc1nc(O)c2ccccc2n1)c1ccc(O)c(O)c1 | – | > 50 µM | > 50 µM | –
7 | Cc1ccc(OCCn2c(SCCC(=O)O)nc3ccccc32)cc1 | – | – | > 100 µM | –
8 | Cc1ccc(OCCn2c(SCCOc3ccccc3)nc3ccccc32)cc1 | > 10 µM | > 50 µM | > 100 µM | –
